Data on 18 compounds can be found in patent publication US20100029710A1, “COMPOUNDS HAVING BOTH ANGIOTENSIN II RECEPTOR ANTAGONISM AND PPARy ACTIVATING ACTIVITIES” (Pfizer Products Inc., priority 2006, published 2010).

The target of test [1] is T1, human PPARγ LBD bound to Gal4 DBD (Homo sapiens, UniProt P37231).
T1 construct: expressed in transfected cells; host or cells: HepG2
T1 sequence (P37231 238-503 limits assumed): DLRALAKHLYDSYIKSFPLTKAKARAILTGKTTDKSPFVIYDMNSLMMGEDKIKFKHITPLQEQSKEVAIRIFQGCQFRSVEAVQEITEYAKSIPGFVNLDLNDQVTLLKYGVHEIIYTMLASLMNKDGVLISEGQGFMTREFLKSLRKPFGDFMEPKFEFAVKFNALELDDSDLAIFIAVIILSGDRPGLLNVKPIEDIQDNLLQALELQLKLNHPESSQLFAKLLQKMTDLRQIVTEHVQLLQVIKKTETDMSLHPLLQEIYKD
The test is described as follows: PPARγ transfection luciferase reporter assay in HepG2 cells. It counts as cell-based. Conditions: for Emax: HepG2, 24 h, compared to full agonist response (standard TZD full agonist), read-out: PPARγ % activation; for EC50: HepG2, 24 hours exposure. As to the method:
PPARγ agonist activity may be determined by a cell line transiently transfected with PPARγ bound to a DNA binding domain that controls luciferase expression. The degree of receptor agonism is measured by the amount of luciferase activity after compound treatment. The ratio of treated cells over vehicle control cells provides a measure of fold activation and allows an EC50 (shown in tables I and II as […] EC50) and % activation to be calculated
A human hepatocellular carcinoma cell line (HepG2) was subcultured into dishes and transiently transfected with DNA to allow expression of human PPARγ LBD bound to Gal4 DBD. Luciferase reporter gene and β-galactosidase control genes were co-transfected to enable activity to be measured. After 24 hours, cells were exposed to compounds in the concentration range of 0.1 nM-100 μM and left for a further 24 hours. Luciferase activity is determined by luminometry and PPARγ activation is expressed as a ratio of luciferase activity to β-galactosidase activity to account for transfection efficiency. Potency is described by an EC50 defined as the concentration of compound producing receptor activation equivalent to 50% of the maximum for that compound (shown in Table I as transfection EC50). The maximum fold activation is a measure of efficacy and is expressed as a percentage of a reference full agonist run in the same assay. Efficacy is described by % activation of receptor relative to a standard thiazolidinedione (TZD) full agonist.

For test [2], the target named is T2, Human recombinant AT1 receptor (Homo sapiens, UniProt P30556).
T2 construct: purchased
T2 sequence (P30556 1-359): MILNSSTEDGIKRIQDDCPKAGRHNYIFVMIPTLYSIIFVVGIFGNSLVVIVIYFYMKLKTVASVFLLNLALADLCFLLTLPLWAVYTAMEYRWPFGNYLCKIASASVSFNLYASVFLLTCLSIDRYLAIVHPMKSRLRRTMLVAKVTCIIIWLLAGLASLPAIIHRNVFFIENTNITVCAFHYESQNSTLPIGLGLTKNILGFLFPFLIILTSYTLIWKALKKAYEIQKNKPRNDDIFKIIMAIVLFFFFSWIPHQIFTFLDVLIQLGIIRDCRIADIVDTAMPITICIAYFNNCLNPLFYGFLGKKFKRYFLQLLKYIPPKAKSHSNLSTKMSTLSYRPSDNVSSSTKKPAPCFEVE
The test is described as follows: AT1 receptor radioligand binding (flashplate). Conditions: 125I Sar1,Ile8-Angiotensin II radioligand. As to the method: Angiotensin II receptor antagonist activity may be determined using commercially available flashplates coated with the AT1 or AT2 receptor which provide a rapid and high throughput means to evaluate compounds compared to traditional filtration based assays (Regina M. Van Der Hee et al., Journal of Biomolecular Screening 10(2); 2005; 118-126).
AT1 receptor affinity was determined in a radioligand binding format using commercially available flashplate technology. Human recombinant AT1 receptor were coated on the wells of a 96 well flashplate and test compounds were diluted and added to wells at a final concentration range of 50 μM to 1 μM. Total binding was determined in the absence of compound and non-specific binding in the presence of 10 μM cold Angiotensin II. ^125I labeled Sar^1, Ile^8-Angiotensin II was added to all wells at Kd concentration and left for 2 hours at room temperature to equilibrate. Plates were read on a TopCount (Perkin Elmer) and concentration-response curves constructed using commercial curve fitting software. The Ki was determined via interpolation and the use of the Cheng-Prussof equation.

In general, EC50 refers to the concentration needed to bring the measured effect to its halfway point. Read a low EC50 as a more potent agent. As usually defined, the IC50 is the midpoint of a concentration-inhibition curve. Regarding `CCc1nc2c(C)cc(CC(C)O)nc2n1[C@H]1CCc2cc(-c3ccccc3-c3nnn[nH]3)ccc21` (mixture of isomers) [Example 15, 1-(3-((1S)-5-(2-(1H-tetrazol-5-yl)phenyl)-2,3-dihydro-1H-inden-1-yl)-2-ethyl-7-methyl-3H-imidazo[4,5-b]pyridin-5-yl)propan-2-ol], in test [1], the Emax stood at 19% and the EC50 was found to be 0.085 µM. Besides, the IC50 in test [2] came to 0.0017 µM.

As to `CCc1nc2c(C)cc([C@@H](O)c3ccccc3)nc2n1[C@H]1CCc2cc(-c3ccccc3-c3nnn[nH]3)ccc21` (single isomer, unassigned) [Example 8a], in test [1], the Emax was determined as 16% and it took 0.06 µM to reach a half-maximal effect (EC50). Moreover, the concentration for half-maximal inhibition (IC50) in test [2] worked out at 0.0013 µM.

In the case of `CCc1nc2c(C)cc(CC[C@@H](C)O)nc2n1[C@H]1CCc2cc(-c3ccccc3-c3nnn[nH]3)ccc21` (single isomer, unassigned) [Example 37], in test [1], the Emax came to 24% and the 50% effective concentration (EC50) was 0.27 µM. For the same compound, the IC50 in test [2] worked out at 0.0005 µM.

As to `CCc1nc2c(C)cc(CC3CCCCC3O)nc2n1[C@H]1CCc2cc(-c3ccccc3-c3nnn[nH]3)ccc21` (single isomer, unassigned) [Example 64], in test [1], the Emax turned out to be 21% and the midpoint of the response, the EC50, lay at 0.095 µM. The IC50 in test [2] was 0.0019 µM.

Turning to `CCc1nc2c(C)cc(CC3CCCC3O)nc2n1[C@H]1CCc2cc(-c3ccccc3-c3nnn[nH]3)ccc21` (single isomer, unassigned) [Example 65], in test [1], the Emax came to 22% and the EC50 was determined as 0.245 µM. The IC50 in test [2] came to 0.0023 µM.

In the case of `CCc1nc2c(C)cc(Cc3ccccc3)nc2n1[C@H]1CCc2cc(-c3ccccc3-c3nnn[nH]3)ccc21` [Example 1, 3-((1S)-5-(2-(1H-tetrazol-5-yl)phenyl)-2,3-dihydro-1H-inden-1-yl)-5-benzyl-2-ethyl-7-methyl-3H-imidazo[4,5-b]pyridine], in test [1], the Emax came out at 27% and the 50% effective concentration (EC50) turned out to be 0.09 µM. The IC50 in test [2] was found to be 0.0045 µM.

With `CCc1nc2c(C)cc(Cc3ccccn3)nc2n1[C@H]1CCc2cc(-c3ccccc3-c3nnn[nH]3)ccc21` [Example 2, 3-((1S)-5-(2-(1H-tetrazol-5-yl)phenyl)-2,3-dihydro-1H-inden-1-yl)-2-ethyl-7-methyl-5-(pyridin-2-ylmethyl)-3H-imidazo[4,5-b]pyridine], in test [1], the Emax stood at 29% and the EC50 came out at 0.105 µM. Besides, in test [2], the concentration for half-maximal inhibition (IC50) is 0.0035 µM.

On to `CCc1nc2c(C)cc(COC)nc2n1[C@H]1CCc2cc(-c3ccccc3-c3nnn[nH]3)ccc21` [Example 3, 3-((1S)-5-(2-(1H-tetrazol-5-yl)phenyl)-2,3-dihydro-1H-inden-1-yl)-2-ethyl-5-(methoxymethyl)-7-methyl-3H-imidazo[4,5-b]pyridine], for which, in test [1], the Emax amounted to 32% and the midpoint of the response, the EC50, lay at 0.665 µM. In test [2], the half-inhibitory concentration (IC50) came to 0.0016 µM.

Turning to `CCc1nc2c(C)cc(COC(C)C)nc2n1[C@H]1CCc2cc(-c3ccccc3-c3nnn[nH]3)ccc21` [Example 4, 3-((1S)-5-(2-(1H-tetrazol-5-yl)phenyl)-2,3-dihydro-1H-inden-1-yl)-2-ethyl-5-(isopropoxymethyl)-7-methyl-3H-imidazo[4,5-b]pyridine], in test [1], the Emax was 32% and the half-maximal effective concentration (EC50) amounted to 0.295 µM. For the same compound, in test [2], the IC50 came out at 0.0022 µM.

Take `CCc1nc2c(C)cc(COC(C)(C)C)nc2n1[C@H]1CCc2cc(-c3ccccc3-c3nnn[nH]3)ccc21` [Example 5, 3-((1S)-5-(2-(1H-tetrazol-5-yl)phenyl)-2,3-dihydro-1H-inden-1-yl)-5-(tert-butoxymethyl)-2-ethyl-7-methyl-3H-imidazo[4,5-b]pyridine]: in test [1], the Emax worked out at 48% and the EC50 worked out at 0.29 µM. In test [2], the 50% inhibitory concentration (IC50) is 0.0029 µM.

As for `CCc1nc2c(C)cc(Cn3cccn3)nc2n1[C@H]1CCc2cc(-c3ccccc3-c3nnn[nH]3)ccc21` [Example 6, 5-((1H-pyrazol-1-yl)methyl)-3-((1S)-5-(2-(1H-tetrazol-5-yl)phenyl)-2,3-dihydro-1H-inden-1-yl)-2-ethyl-7-methyl-3H-imidazo[4,5-b]pyridine], in test [1], the Emax was 46% and the EC50 amounted to 0.275 µM. Besides, the IC50 in test [2] worked out at 0.01 µM.

With `CCc1nc2c(C)cc([C@H](O)c3ccccc3)nc2n1[C@H]1CCc2cc(-c3ccccc3-c3nnn[nH]3)ccc21` [Example 8b, (R)-(3-((1S)-5-(2-(1H-tetrazol-5-yl)phenyl)-2,3-dihydro-1H-inden-1-yl)-2-ethyl-7-methyl-3H-imidazo[4,5-b]pyridin-5-yl)(phenyl)methanol], in test [1], the Emax is 25% and the midpoint of the response, the EC50, lay at 0.1 µM. Further, the half-inhibitory concentration (IC50) in test [2] was determined as 0.0015 µM.

`C=CCc1cc(C)c2nc(CC)n([C@H]3CCc4cc(-c5ccccc5-c5nnn[nH]5)ccc43)c2n1` [Example 9, 3-((1S)-5-(2-(1H-tetrazol-5-yl)phenyl)-2,3-dihydro-1H-inden-1-yl)-5-allyl-2-ethyl-7-methyl-3H-imidazo[4,5-b]pyridine]: in test [1], the Emax was 27% and the half-maximal effective concentration (EC50) was 0.06 µM. Moreover, in test [2], the half-inhibitory concentration (IC50) amounted to 0.0027 µM.

Turning to `CCc1nc2c(C)cc([C@H](O)C(C)C)nc2n1[C@H]1CCc2cc(-c3ccccc3-c3nnn[nH]3)ccc21` [Example 11, (R)-1-(3-((1S)-5-(2-(1H-tetrazol-5-yl)phenyl)-2,3-dihydro-1H-inden-1-yl)-2-ethyl-7-methyl-3H-imidazo[4,5-b]pyridin-5-yl)-2-methylpropan-1-ol], in test [1], the Emax amounted to 39% and the EC50 turned out to be 0.44 µM. The concentration for half-maximal inhibition (IC50) in test [2] worked out at 0.016 µM.

As for `CCc1nc2c(C)cc([C@@H](OC)C(C)C)nc2n1[C@H]1CCc2cc(-c3ccccc3-c3nnn[nH]3)ccc21` [Example 12, 3-((1S)-5-(2-(1H-tetrazol-5-yl)phenyl)-2,3-dihydro-1H-inden-1-yl)-2-ethyl-5-((S)-1-methoxy-2-methylpropyl)-7-methyl-3H-imidazo[4,5-b]pyridine], in test [1], the Emax was determined as 17% and the EC50 came out at 0.46 µM. Also, the IC50 in test [2] stood at 0.0007 µM.

On to `CCc1nc2c(C)cc(CC(C)=O)nc2n1[C@H]1CCc2cc(-c3ccccc3-c3nnn[nH]3)ccc21` [Example 14, 1-(3-((1S)-5-(2-(1H-tetrazol-5-yl)phenyl)-2,3-dihydro-1H-inden-1-yl)-2-ethyl-7-methyl-3H-imidazo[4,5-b]pyridin-5-yl)propan-2-one], for which, in test [1], the Emax is 21% and a half-maximal effect (EC50) was put at 0.41 µM. Also, the half-inhibitory concentration (IC50) in test [2] came to 0.005 µM.

Consider `CCc1nc2c(C)cc(C(C)(C)OC)nc2n1[C@H]1CCc2cc(-c3ccccc3-c3nnn[nH]3)ccc21` [Example 17, 3-((1S)-5-(2-(1H-tetrazol-5-yl)phenyl)-2,3-dihydro-1H-inden-1-yl)-2-ethyl-5-(2-methoxypropan-2-yl)-7-methyl-3H-imidazo[4,5-b]pyridine], for which, in test [1], the Emax came out at 24% and it took 0.065 µM to reach a half-maximal effect (EC50). The IC50 in test [2] was 0.0088 µM.

Regarding `CCc1nc2c(C)cc(CC(O)CC(C)C)nc2n1[C@H]1CCc2cc(-c3ccccc3-c3nnn[nH]3)ccc21` (stereo partly drawn) [Example 18, 1-(3-((1S)-5-(2-(1H-tetrazol-5-yl)phenyl)-2,3-dihydro-1H-inden-1-yl)-2-ethyl-7-methyl-3H-imidazo[4,5-b]pyridin-5-yl)-4-methylpentan-2-ol], in test [1], the Emax is 29% and it took 0.085 µM to reach a half-maximal effect (EC50). For the same compound, the 50% inhibitory concentration (IC50) in test [2] is 0.0054 µM.
